This note sets out measurements from PubChem BioAssay AID1996.

As usually defined, the solubility (kinetic) is solubility judged after dilution from a stock solution rather than from solid.

Converted amounts (≈) assume the structure as drawn. Where only a bound is given, the exact number is not on record here.

For this series the following is noted: buffer; pH 7.4; 200.0 µM.
The compound `CCc1ccccc1NC(=S)N1CCN(c2cccc(OC)c2)CC1` came in with a kinetic solubility of 2.2 µg/mL (≈ 6.19 µM).

Regarding `O=C(/C=C/c1cccc(Cl)c1)NCc1ccccc1`, the solubility (kinetic) came to 3.4 µg/mL (≈ 12.5 µM). With `O=C(Nc1ccc(-c2cnco2)cc1)c1ccccc1` the figure was under 0.3 µg/mL; with `CCc1nc(N[C@H](C(=O)O)C(C)C)c2oc3ccccc3c2n1`, over 47 µg/mL; with `CCc1ccc(C(=O)Nc2ccc3c(c2)n(C)c(=O)n3C)cc1`, 5.6 µg/mL (≈ 18.1 µM). The figure for `CCc1cc(Cl)c(OC)c(C(=O)NC[C@@H]2CCCN2CC)c1O.Cl` is over 56.6 µg/mL; for `CCOC(=O)C1C(c2ccccc2O)NC(=O)NC1(O)C(F)(F)F` (stereo unspecified) it is over 52.2 µg/mL. The figure for `CCOc1ccc(S(=O)(=O)N2CCOCC2)cc1[N+](=O)[O-]` is over 47.4 µg/mL; for `COc1ccccc1Nc1nc(NCc2ccco2)c2ccccc2n1.Cl` it is 0.4 µg/mL; for `O=C(NCCNC(=O)c1ccccc1F)c1ccco1.O=C(O)C(=O)O` it is 51.5 µg/mL. For `CCc1ccc(S(=O)(=O)Nc2ccc(N3CCN(C)CC3)cc2)cc1`, the solubility (kinetic) is 50.8 µg/mL (≈ 141 µM). In turn, `COc1c(C)cc(C(=O)C2CCCN(C(=O)/C=C/c3ccccn3)C2)cc1C` (stereo unspecified) came in with a kinetic solubility of 40.6 µg/mL (≈ 107 µM). This solubility kinetic and that of the compound before are within 1.5-fold of each other. The figure for `COCCn1c(-c2ccc(F)cc2)nc2cccnc21` is 36.1 µg/mL (≈ 133 µM). Compound `Cc1ccc(CNC(=O)N2CCN(c3ccc(C)cc3)CC2)cc1` displayed a solubility (kinetic) of 4.1 µg/mL (≈ 12.7 µM). The figure for `Cc1ccc(CSCc2ccc(C(=O)NC3CC3)o2)cc1` is over 45.2 µg/mL. With `COc1ccc(OC)c(-c2cc(C(=O)N3CCOCC3)no2)c1` the figure was over 47.7 µg/mL; with `Cc1ccc(NC(=O)C2CC(=O)N(C(C)c3ccccc3)C2)cc1` (stereo unspecified), over 48.4 µg/mL. With `COc1ccc(Cl)cc1NC(=O)CN1c2ccccc2CC1C` (stereo unspecified) the figure was 2.2 µg/mL (≈ 6.65 µM); with `CNc1nc(NC#N)nc(SC)n1`, 24.9 µg/mL (≈ 127 µM). Compound `Cc1cc(C)c(S(=O)(=O)NCC(=O)NCc2ccco2)c(C)c1` yielded a kinetic solubility of 44.2 µg/mL (≈ 131 µM). This solubility kinetic is about 1.8-fold higher than that of the compound before.

`CC1CCCN(CCS(=O)(=O)c2ccccc2)C1` (stereo unspecified) had a kinetic solubility of 39.5 µg/mL (≈ 148 µM). The figure for `O=C(COC(=O)c1cccnc1Cl)NCC1CCCO1` (stereo unspecified) is over 44.8 µg/mL; for `O=C(/C=C/c1ccccc1)OCc1cncs1` it is 32.2 µg/mL (≈ 131 µM); for `COc1ccc(NC(=S)N2CCC(c3ccc(C)cc3)C2)cc1` (stereo unspecified) it is 0.6 µg/mL (≈ 1.84 µM). With `CCN(CC(=O)Nc1ccc(NC(C)=O)cc1)C(=O)c1c(C)nn(-c2ccc(F)cc2)c1Cl` the figure was over 70.8 µg/mL.

In the case of `COC1CC(C)NC(=S)N1` (stereo unspecified), the solubility (kinetic) was over 24 µg/mL. The figure for `COc1cc(/C=C/C(=O)N2CCc3ccccc3C2)cc(OC)c1OC` is 46.6 µg/mL (≈ 132 µM); for `COc1cccc(CNC(=O)CC(NC(C)=O)c2ccccc2)c1` (stereo unspecified) it is over 49 µg/mL; for `CCN(CCCl)Cc1ccccc1Br.Cl` it is 42.1 µg/mL. With `Cc1cc(C)c(C)c(S(=O)(=O)NCCCn2ccnc2)c1C` the figure was 39.8 µg/mL (≈ 124 µM); with `Cc1ccc(C)c(NC(=O)N2CCc3ccccc3C2)c1`, 18.9 µg/mL (≈ 67.4 µM); with `C/C(=C\C(=O)c1ncc(C(F)(F)F)cc1Cl)N(C)C`, 41 µg/mL (≈ 140 µM). `O=C(O)c1cccnc1SCc1cn2cc(Cl)ccc2n1` had a solubility (kinetic) of over 48 µg/mL.

`N#CC1(NC(=O)COC(=O)/C=C/c2ccc3ccccc3n2)CCCCC1`: the kinetic solubility stood at 3 µg/mL (≈ 8.25 µM). The figure for `Oc1c(CN2CCCC(C(F)(F)F)C2)cc(Cl)c2ccccc12` (stereo unspecified) is 4.1 µg/mL (≈ 11.9 µM); for `Nc1ccc(Oc2ncccn2)c(Cl)c1` it is over 33.2 µg/mL. Turning to `Cc1ccc(S(=O)(=O)NCC(=O)OCC(=O)NCc2ccco2)cc1`, the solubility (kinetic) was over 55 µg/mL. With `COC(=O)c1ccc(S(=O)(=O)c2ccc(Cl)cc2)c(N)c1` the figure was 1.2 µg/mL (≈ 3.68 µM); with `N#Cc1ccccc1COC(=O)CCN=C1NS(=O)(=O)c2ccccc21`, 52.4 µg/mL (≈ 142 µM); with `CCOc1ccc(S(=O)(=O)c2c[nH]c3ccccc3c2=O)cc1`, 1.7 µg/mL (≈ 5.16 µM).

`O=C(c1ccc(OC(F)(F)F)cc1)c1ncc[nH]1` registered a solubility (kinetic) of 37.2 µg/mL (≈ 145 µM).
